# Assay results as given in PubChem BioAssay (NCI).
#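 Cultured in 96-well plates, cells were exposed to test compound for 48 hours across five concentrations. TGI marks complete inhibition of growth.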
# Legend:
# Assay in all cases: DTP human tumour cell line panel, 48 h
# BT-549 breast = test system: BT-549 breast
# LXFL 529 NSCLC = test system: LXFL 529 NSCLC
# HCC-2998 colon = test system: HCC-2998 colon
# SK-MEL-2 melanoma = test system: SK-MEL-2 melanoma
# SNB-19 CNS = test system: SNB-19 CNS
# A498 renal = test system: A498 renal
# ACHN renal = test system: ACHN renal
# M14 melanoma = test system: M14 melanoma
# SK-MEL-5 melanoma = test system: SK-MEL-5 melanoma
# UACC-257 melanoma = test system: UACC-257 melanoma
# NCI-H522 lung = test system: NCI-H522 lung
# MDA-N = test system: MDA-N
# OVCAR-5 ovarian = test system: OVCAR-5 ovarian
# OVCAR-8 ovarian = test system: OVCAR-8 ovarian
# NCI-H226 lung = test system: NCI-H226 lung
# SF-295 CNS = test system: SF-295 CNS
# HCT-116 colon = test system: HCT-116 colon
# NCI-H23 lung = test system: NCI-H23 lung
# CAKI-1 renal = test system: CAKI-1 renal
# SF-268 CNS = test system: SF-268 CNS
# NCI-H460 lung = test system: NCI-H460 lung
# HOP-18 NSCLC = test system: HOP-18 NSCLC
# SNB-78 CNS = test system: SNB-78 CNS
# RXF 393 renal = test system: RXF 393 renal
# SF-539 CNS = test system: SF-539 CNS
# DU-145 prostate = test system: DU-145 prostate
# HT29 colon = test system: HT29 colon
# SK-OV-3 ovarian = test system: SK-OV-3 ovarian
# SW-620 colon = test system: SW-620 colon
# MOLT-4 leukemia = test system: MOLT-4 leukemia
# CCRF-CEM leukemia = test system: CCRF-CEM leukemia
# EKVX NSCLC = test system: EKVX NSCLC
# OVCAR-4 ovarian = test system: OVCAR-4 ovarian
# MDA-MB-231 breast = test system: MDA-MB-231 breast
# DMS 114 small cell lung = test system: DMS 114 small cell lung
# DMS 273 small cell lung = test system: DMS 273 small cell lung
# UACC-62 melanoma = test system: UACC-62 melanoma
# M19-MEL melanoma = test system: M19-MEL melanoma
# HL-60(TB) leukemia = test system: HL-60(TB) leukemia
# SR leukemia = test system: SR leukemia
# XF 498 CNS = test system: XF 498 CNS
# MDA-MB-435 = test system: MDA-MB-435
# KM12 colon = test system: KM12 colon
# MALME-3M melanoma = test system: MALME-3M melanoma
# T-47D breast = test system: T-47D breast
# UO-31 renal = test system: UO-31 renal
# COLO 205 colon = test system: COLO 205 colon
# KM20L2 colon = test system: KM20L2 colon
# K-562 leukemia = test system: K-562 leukemia
# HOP-62 NSCLC = test system: HOP-62 NSCLC
# DLD-1 colon = test system: DLD-1 colon
# MCF7 breast = test system: MCF7 breast
# RPMI-8226 leukemia = test system: RPMI-8226 leukemia
# U251 CNS = test system: U251 CNS
# SN12C renal = test system: SN12C renal
# PC-3 prostate = test system: PC-3 prostate
# TK-10 renal = test system: TK-10 renal
# HCT-15 colon = test system: HCT-15 colon
# NCI/ADR-RES ovarian = test system: NCI/ADR-RES ovarian
# A549 NSCLC = test system: A549 NSCLC
# SK-MEL-28 melanoma = test system: SK-MEL-28 melanoma
# OVCAR-3 ovarian = test system: OVCAR-3 ovarian
# HOP-92 NSCLC = test system: HOP-92 NSCLC
# IGROV1 ovarian = test system: IGROV1 ovarian
# LOX IMVI melanoma = test system: LOX IMVI melanoma
# 786-0 renal = test system: 786-0 renal
structure (smiles),measurement,setting,value
C[C@]12CC[C@@H]3c4ccc(O)cc4CC[C@H]3[C@@H]1CC[C@@H]2OC(=O)CCC1CCCC1,TGI,BT-549 breast,32.7 µM
same,TGI,LXFL 529 NSCLC,32.1 µM
same,TGI,HCC-2998 colon,37.8 µM
same,TGI,SK-MEL-2 melanoma,> 56.4 µM
same,TGI,SNB-19 CNS,31.3 µM
same,TGI,A498 renal,38.8 µM
same,TGI,ACHN renal,55.5 µM
same,TGI,M14 melanoma,43.4 µM
same,TGI,SK-MEL-5 melanoma,33.4 µM
same,TGI,UACC-257 melanoma,> 57.7 µM
same,TGI,NCI-H522 lung,32.6 µM
same,TGI,MDA-N,20.2 µM
same,TGI,OVCAR-5 ovarian,> 57.2 µM
same,TGI,OVCAR-8 ovarian,31.7 µM
same,TGI,NCI-H226 lung,36.6 µM
same,TGI,SF-295 CNS,31.8 µM
same,TGI,HCT-116 colon,31.1 µM
same,TGI,NCI-H23 lung,34.6 µM
same,TGI,CAKI-1 renal,33.2 µM
same,TGI,SF-268 CNS,41.1 µM
same,TGI,NCI-H460 lung,36.3 µM
same,TGI,HOP-18 NSCLC,59.6 µM
same,TGI,SNB-78 CNS,> 100 µM
same,TGI,RXF 393 renal,28.3 µM
same,TGI,SF-539 CNS,40.5 µM
same,TGI,DU-145 prostate,26.9 µM
same,TGI,HT29 colon,32 µM
same,TGI,SK-OV-3 ovarian,38.3 µM
same,TGI,SW-620 colon,38.1 µM
same,TGI,MOLT-4 leukemia,35.2 µM
same,TGI,CCRF-CEM leukemia,38.4 µM
same,TGI,EKVX NSCLC,21 µM
same,TGI,OVCAR-4 ovarian,32 µM
same,TGI,MDA-MB-231 breast,32.2 µM
same,TGI,DMS 114 small cell lung,85.9 µM
same,TGI,DMS 273 small cell lung,27.7 µM
same,TGI,UACC-62 melanoma,27.5 µM
same,TGI,M19-MEL melanoma,67.9 µM
same,TGI,HL-60(TB) leukemia,34.8 µM
same,TGI,SR leukemia,39.3 µM
same,TGI,XF 498 CNS,40.9 µM
same,TGI,MDA-MB-435,21.7 µM
same,TGI,KM12 colon,> 56.8 µM
same,TGI,MALME-3M melanoma,55.3 µM
same,TGI,T-47D breast,28.4 µM
same,TGI,UO-31 renal,35.3 µM
same,TGI,COLO 205 colon,33.9 µM
same,TGI,KM20L2 colon,33.1 µM
same,TGI,K-562 leukemia,35.2 µM
same,TGI,HOP-62 NSCLC,33.9 µM
same,TGI,DLD-1 colon,98.6 µM
same,TGI,MCF7 breast,31 µM
same,TGI,RPMI-8226 leukemia,38.3 µM
same,TGI,U251 CNS,33.5 µM
same,TGI,SN12C renal,31.2 µM
same,TGI,PC-3 prostate,31.3 µM
same,TGI,TK-10 renal,48.4 µM
same,TGI,HCT-15 colon,33.8 µM
same,TGI,NCI/ADR-RES ovarian,32.9 µM
same,TGI,A549 NSCLC,32.2 µM
same,TGI,SK-MEL-28 melanoma,34.2 µM
same,TGI,OVCAR-3 ovarian,30.1 µM
same,TGI,HOP-92 NSCLC,47.7 µM
same,TGI,IGROV1 ovarian,33.4 µM
same,TGI,LOX IMVI melanoma,35.6 µM
same,TGI,786-0 renal,29.9 µM
